ChEMBL document CHEMBL1153290, “Development of multitargeted inhibitors of both the insulin-like growth factor receptor (IGF-IR) and members of the epidermal growth factor family of receptor tyrosine kinases” (Bioorg Med Chem Lett, 2009)
Activity calls are given as the source filed them. The rule behind the calls is not given here.

Assays:
[1] = biological target: T1, Receptor tyrosine-protein kinase erbB-2 (Homo sapiens, UniProt P04626); assay: Inhibition of ErbB2 by time resolved fluorescence assay
T1 sequence (P04626 whole entry): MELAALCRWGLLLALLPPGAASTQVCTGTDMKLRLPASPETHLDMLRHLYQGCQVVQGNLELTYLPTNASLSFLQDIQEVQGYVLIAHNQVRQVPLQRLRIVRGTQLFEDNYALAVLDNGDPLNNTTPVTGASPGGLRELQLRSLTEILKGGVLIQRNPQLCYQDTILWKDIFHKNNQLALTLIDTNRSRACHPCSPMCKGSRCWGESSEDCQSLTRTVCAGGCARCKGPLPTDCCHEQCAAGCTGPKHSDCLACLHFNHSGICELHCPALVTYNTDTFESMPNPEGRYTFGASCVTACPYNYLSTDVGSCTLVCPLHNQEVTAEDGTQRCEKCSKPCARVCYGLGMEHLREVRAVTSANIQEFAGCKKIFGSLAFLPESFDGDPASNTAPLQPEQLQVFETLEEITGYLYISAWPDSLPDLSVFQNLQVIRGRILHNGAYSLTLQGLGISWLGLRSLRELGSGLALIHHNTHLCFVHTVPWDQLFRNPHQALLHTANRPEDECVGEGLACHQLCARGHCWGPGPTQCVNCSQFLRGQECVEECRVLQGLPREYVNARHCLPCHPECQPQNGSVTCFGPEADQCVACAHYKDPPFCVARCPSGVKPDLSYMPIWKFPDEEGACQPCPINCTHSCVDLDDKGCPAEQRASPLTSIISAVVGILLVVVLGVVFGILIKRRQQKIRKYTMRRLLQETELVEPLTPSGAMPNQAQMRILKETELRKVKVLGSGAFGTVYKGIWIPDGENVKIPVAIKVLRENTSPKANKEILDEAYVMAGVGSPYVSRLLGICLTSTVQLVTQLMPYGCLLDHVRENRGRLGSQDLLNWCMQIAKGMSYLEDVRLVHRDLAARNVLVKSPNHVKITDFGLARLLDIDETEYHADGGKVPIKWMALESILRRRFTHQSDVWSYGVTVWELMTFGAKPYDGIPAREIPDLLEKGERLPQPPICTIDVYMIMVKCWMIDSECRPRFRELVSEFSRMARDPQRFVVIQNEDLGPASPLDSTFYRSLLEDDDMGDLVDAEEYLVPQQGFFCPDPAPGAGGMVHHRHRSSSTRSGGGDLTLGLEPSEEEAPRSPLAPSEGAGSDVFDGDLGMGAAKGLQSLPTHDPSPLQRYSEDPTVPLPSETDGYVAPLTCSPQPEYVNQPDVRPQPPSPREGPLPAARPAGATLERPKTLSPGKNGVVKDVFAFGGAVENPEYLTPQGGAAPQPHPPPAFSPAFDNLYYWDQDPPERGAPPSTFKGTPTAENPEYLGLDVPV

[2] = biological target: Epidermal growth factor receptor (Homo sapiens, UniProt P00533, L858R)
Sequence of Epidermal growth factor receptor (Homo sapiens, UniProt P00533, L858R) (P00533 25-1210 L858R limits assumed): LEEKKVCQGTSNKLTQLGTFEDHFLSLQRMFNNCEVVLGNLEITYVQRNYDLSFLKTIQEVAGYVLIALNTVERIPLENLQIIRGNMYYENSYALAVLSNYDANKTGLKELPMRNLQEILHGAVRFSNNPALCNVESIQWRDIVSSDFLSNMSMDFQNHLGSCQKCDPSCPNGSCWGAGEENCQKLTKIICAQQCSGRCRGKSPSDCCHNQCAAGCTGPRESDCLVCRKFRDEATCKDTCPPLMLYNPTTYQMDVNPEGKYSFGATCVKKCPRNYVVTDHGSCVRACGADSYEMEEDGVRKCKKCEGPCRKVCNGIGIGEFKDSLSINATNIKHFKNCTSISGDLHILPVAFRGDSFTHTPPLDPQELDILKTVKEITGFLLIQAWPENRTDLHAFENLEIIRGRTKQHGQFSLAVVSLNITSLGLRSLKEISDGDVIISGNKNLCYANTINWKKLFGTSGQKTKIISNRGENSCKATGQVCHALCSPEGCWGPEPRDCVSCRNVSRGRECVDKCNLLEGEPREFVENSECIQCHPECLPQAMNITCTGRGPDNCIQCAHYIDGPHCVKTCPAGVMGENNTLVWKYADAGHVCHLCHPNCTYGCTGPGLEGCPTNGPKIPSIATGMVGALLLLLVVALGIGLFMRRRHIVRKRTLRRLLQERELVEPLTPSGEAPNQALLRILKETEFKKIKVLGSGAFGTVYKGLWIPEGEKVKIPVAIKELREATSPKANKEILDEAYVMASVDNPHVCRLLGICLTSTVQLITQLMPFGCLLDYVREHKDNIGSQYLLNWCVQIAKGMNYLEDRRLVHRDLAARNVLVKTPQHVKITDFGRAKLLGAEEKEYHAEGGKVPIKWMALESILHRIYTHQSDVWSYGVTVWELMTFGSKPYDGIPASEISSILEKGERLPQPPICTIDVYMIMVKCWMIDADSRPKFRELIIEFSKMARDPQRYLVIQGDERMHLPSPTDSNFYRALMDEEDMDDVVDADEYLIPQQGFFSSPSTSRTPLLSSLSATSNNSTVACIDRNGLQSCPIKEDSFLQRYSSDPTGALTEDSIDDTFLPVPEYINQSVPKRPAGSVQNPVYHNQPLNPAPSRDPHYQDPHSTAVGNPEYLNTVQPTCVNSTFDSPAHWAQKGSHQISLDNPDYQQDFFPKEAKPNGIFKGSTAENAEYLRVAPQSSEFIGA

[3] = biological target: Epidermal growth factor receptor (Homo sapiens, UniProt P00533); assay: Inhibition of EGFR phosphorylation in IGF1 and EGF-stimulated human MiaPaCa2 cells pretreated for 6 hrs before IGF1 and EGF stimulation by ELISA; type: cell-based
Sequence of Epidermal growth factor receptor (Homo sapiens, UniProt P00533) (P00533 whole entry): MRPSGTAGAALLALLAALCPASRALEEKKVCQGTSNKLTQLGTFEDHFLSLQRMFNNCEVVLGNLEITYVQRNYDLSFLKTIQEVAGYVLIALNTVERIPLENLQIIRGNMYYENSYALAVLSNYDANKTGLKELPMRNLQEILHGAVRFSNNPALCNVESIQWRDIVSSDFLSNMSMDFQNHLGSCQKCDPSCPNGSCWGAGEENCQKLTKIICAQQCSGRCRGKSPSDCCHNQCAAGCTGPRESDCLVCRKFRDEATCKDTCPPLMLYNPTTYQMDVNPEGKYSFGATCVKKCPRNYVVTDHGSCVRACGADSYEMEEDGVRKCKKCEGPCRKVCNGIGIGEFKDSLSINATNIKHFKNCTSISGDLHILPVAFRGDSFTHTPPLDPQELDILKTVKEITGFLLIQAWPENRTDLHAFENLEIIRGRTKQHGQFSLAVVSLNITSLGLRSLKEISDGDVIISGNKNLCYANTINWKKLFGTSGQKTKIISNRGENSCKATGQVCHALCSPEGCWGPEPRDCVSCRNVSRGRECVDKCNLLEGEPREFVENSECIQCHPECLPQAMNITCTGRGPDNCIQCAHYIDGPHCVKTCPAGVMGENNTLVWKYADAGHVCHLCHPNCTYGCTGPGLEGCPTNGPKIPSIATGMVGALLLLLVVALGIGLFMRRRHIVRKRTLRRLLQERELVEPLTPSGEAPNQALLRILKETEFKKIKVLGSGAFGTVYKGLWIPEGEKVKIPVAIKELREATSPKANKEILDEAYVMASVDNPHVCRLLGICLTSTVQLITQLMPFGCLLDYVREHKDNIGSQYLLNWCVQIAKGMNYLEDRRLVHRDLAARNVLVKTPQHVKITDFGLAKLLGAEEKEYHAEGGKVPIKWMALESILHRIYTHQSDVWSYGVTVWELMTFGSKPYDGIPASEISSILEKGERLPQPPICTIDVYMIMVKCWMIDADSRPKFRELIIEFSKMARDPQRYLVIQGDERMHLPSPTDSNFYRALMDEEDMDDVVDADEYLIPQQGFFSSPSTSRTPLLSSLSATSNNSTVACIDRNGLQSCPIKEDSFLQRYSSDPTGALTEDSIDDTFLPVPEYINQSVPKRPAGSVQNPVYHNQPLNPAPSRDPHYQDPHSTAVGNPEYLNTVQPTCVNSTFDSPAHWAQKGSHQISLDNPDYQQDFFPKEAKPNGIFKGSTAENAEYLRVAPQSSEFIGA

[4] = biological target: T1, Receptor tyrosine-protein kinase erbB-2; assay: Inhibition of ErbB2 phosphorylation in IGF1 and EGF-stimulated human N87 cells pretreated for 6 hrs before IGF1 and EGF stimulation by ELISA; type: cell-based, NCI-N87
[5] = biological target: T2, Insulin-like growth factor 1 receptor (Homo sapiens, UniProt P08069); assay: Inhibition of IGF1R by time resolved fluorescence assay
T2 sequence (P08069 31-736 limits assumed): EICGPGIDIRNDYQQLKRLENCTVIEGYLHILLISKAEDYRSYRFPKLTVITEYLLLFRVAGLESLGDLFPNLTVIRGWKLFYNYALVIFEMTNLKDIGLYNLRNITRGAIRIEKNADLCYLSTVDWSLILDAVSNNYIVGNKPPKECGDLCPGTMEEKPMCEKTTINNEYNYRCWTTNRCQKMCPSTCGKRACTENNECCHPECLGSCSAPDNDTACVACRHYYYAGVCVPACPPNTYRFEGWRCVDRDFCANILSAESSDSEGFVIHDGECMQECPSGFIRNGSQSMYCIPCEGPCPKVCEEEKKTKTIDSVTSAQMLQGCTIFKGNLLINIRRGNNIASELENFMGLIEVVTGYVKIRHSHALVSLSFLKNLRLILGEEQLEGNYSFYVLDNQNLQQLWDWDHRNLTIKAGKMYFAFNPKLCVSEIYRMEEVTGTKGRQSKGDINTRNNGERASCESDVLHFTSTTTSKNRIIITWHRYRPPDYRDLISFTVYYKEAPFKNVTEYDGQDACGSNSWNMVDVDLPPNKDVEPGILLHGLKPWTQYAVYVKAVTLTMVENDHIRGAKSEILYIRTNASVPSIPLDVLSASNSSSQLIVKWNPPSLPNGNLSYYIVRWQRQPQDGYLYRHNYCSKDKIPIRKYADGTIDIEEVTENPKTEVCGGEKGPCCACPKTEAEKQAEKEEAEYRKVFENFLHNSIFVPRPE
T2 sequence (P08069 741-1367 limits assumed): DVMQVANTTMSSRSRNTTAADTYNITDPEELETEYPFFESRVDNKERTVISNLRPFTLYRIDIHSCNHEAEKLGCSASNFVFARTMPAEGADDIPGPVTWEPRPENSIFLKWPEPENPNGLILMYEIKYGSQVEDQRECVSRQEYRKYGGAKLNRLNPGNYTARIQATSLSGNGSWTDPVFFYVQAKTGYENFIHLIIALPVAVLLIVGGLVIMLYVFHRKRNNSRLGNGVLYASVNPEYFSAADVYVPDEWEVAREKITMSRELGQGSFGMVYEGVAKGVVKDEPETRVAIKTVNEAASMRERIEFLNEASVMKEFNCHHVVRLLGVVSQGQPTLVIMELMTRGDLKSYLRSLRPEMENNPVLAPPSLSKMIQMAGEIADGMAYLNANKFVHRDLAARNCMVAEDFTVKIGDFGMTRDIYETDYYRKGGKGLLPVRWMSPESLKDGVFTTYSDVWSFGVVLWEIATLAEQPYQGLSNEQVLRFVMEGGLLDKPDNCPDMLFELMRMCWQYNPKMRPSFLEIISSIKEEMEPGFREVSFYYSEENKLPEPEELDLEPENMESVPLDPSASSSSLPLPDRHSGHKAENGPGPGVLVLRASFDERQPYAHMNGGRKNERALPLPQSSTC

[6] = biological target: T2, Insulin-like growth factor 1 receptor; assay: Inhibition of IGF1R phosphorylation in IGF1 and EGF-stimulated human MiaPaCa2 cells pretreated for 6 hrs before IGF1 and EGF stimulation by ELISA; type: cell-based
[7] = Protein binding in human plasma; type: ADME, cell-free; conditions: read-out: PPB (converted)
Mus musculus [8] = assay: Inhibition of EGFR phosphorylation in IGF1 and EGF-stimulated mouse liver at 50 mg/kg, po pretreated 4 hrs before IGF1 and EGF stimulation; type: functional, organism-based; set-up: dose 50 mg/kg
[9] = Oral bioavailability in mouse; type: ADME, organism-based; conditions: in vivo
Cytochrome P450 2D6 = Cytochrome P450 2D6 (Homo sapiens, UniProt P10635); assay: Inhibition of human CYP2D6; type: ADME
Mus musculus [10] = assay: Dose normalized AUC in ip dosed mouse; type: ADME, organism-based; conditions: in vivo
Mus musculus [11] = assay: Dose normalized AUC in po dosed mouse; type: ADME, organism-based; conditions: in vivo
[12] = Clearance in mouse; type: ADME, organism-based; conditions: in vivo
Mus musculus [13] = assay: Dose normalized AUC in iv dosed mouse; type: ADME, organism-based; conditions: in vivo
Mus musculus [14] = assay: Inhibition of IGF1R phosphorylation in IGF1 and EGF-stimulated mouse lung at 50 mg/kg, ip pretreated 4 hrs before IGF1 and EGF stimulation; type: functional, organism-based; set-up: dose 50 mg/kg
Mus musculus [15] = assay: Inhibition of EGFR phosphorylation in IGF1 and EGF-stimulated mouse liver at 50 mg/kg, ip pretreated 4 hrs before IGF1 and EGF stimulation; type: functional, organism-based; set-up: dose 50 mg/kg
[16] = Bioavailability in ip dosed mouse; type: ADME, organism-based; conditions: in vivo
[17] = Half life in mouse; type: ADME, organism-based; conditions: in vivo
[18] = Aqueous solubility at pH 7.2; type: physicochemical; conditions: buffer
Cytochrome P450 2C9 = Cytochrome P450 2C9 (Homo sapiens, UniProt P11712); assay: Inhibition of human CYP2C9; type: ADME
Cytochrome P450 3A4 = Cytochrome P450 3A4 (Homo sapiens, UniProt P08684); assay: Inhibition of human CYP3A4; type: ADME
Mus musculus [19] = assay: Inhibition of IGF1R phosphorylation in IGF1 and EGF-stimulated mouse lung at 50 mg/kg, po pretreated 4 hrs before IGF1 and EGF stimulation; type: functional, organism-based; set-up: dose 50 mg/kg

| Compound | IC50 [1] [nM] | IC50 [2] [nM] | EC50 [3] [nM] | EC50 [4] [nM] | IC50 [5] [nM] | EC50 [6] [nM] | further results |
| --- | --- | --- | --- | --- | --- | --- | --- |
| Nc1ncnc2c1c(-c1ccc3nc(Cc4ccccc4Cl)[nH]c3c1)nn2[C@H]1CC[C@H](N2CCOCC2)CC1 | 664 | 65 |  |  | 36 |  |  |
| COc1ccccc1Cc1nc2ccc(-c3nn([C@H]4CC[C@H](N5CCN(CC6CC6)CC5)CC4)c4ncnc(N)c34)cc2[nH]1 | 13 | 3 | 91 | 147 | 40 | 190 |  |
| COc1ccccc1Cc1nc2ccc(-c3nn([C@H]4CC[C@H](N5CCNCC5)CC4)c4ncnc(N)c34)cc2[nH]1 | 44 | 30 | 335 | 210 | 26 | 711 |  |
| Nc1ncnc2c1c(-c1ccc3nc(Cc4cccs4)[nH]c3c1)nn2[C@H]1CC[C@H](N2CCOCC2)CC1 | 250 | 361 |  |  | 25 |  |  |
| CCOC(=O)N1CCN([C@H]2CC[C@H](n3nc(-c4ccc5nc(Cc6ccccc6OC)[nH]c5c4)c4c(N)ncnc43)CC2)CC1 | 270 | 30 | 520 | 1600 | 309 | 247 |  |

The next lines start with results.

| IC50 [1] [nM] | IC50 [2] [nM] | EC50 [3] [nM] | EC50 [4] [nM] | IC50 [5] [nM] | EC50 [6] [nM] | Compound | further results |
| --- | --- | --- | --- | --- | --- | --- | --- |
| 53 |  |  |  |  |  | COc1ccccc1Cc1nc2ccc(-c3nn([C@H]4CC[C@H](N5CCOCC5)CC4)c4ncnc(N)c34)cc2[nH]1 |  |
| 59 | 130 | 742 | 660 | 27 | 143 | COc1ccccc1Cc1nc2ccc(-c3nn([C@H]4CC[C@H](N5CCN(C(C)=O)CC5)CC4)c4ncnc(N)c34)cc2[nH]1 |  |
| 54 | 58 | 85 | 94 | 81 | 115 | COCCCN1CCN([C@H]2CC[C@H](n3nc(-c4ccc5nc(Cc6ccccc6OC)[nH]c5c4)c4c(N)ncnc43)CC2)CC1 | fraction unbound [7]: 0.033; inhibition (Mus musculus [8]): Active; bioavailability [9]: 12%; IC50 (Cytochrome P450 2D6): 1600 nM; AUC (Mus musculus [10]): 2.71 µmol·h/L/mg/kg; AUC (Mus musculus [11]): 0.42 µmol·h/L/mg/kg; clearance [12]: 7.83 mL/min/kg; AUC (Mus musculus [13]): 3.5 µmol·h/L/mg/kg; inhibition (Mus musculus [14]): Active; inhibition (Mus musculus [15]): Active; bioavailability [16]: 100%; half-life [17]: 3.1 h; solubility [18]: > 30 µM; IC50 (Cytochrome P450 2C9): > 20000 nM; IC50 (Cytochrome P450 3A4): > 20000 nM; inhibition (Mus musculus [19]): Active |
| 186 | 270 |  |  |  |  | Nc1ncnc2c1c(-c1ccc3nc(Cc4ccccc4)[nH]c3c1)nn2[C@H]1CC[C@H](N2CCOCC2)CC1 |  |
| 17 | 25 | 808 | 1580 | 69 | 208 | COc1ccccc1Cc1nc2ccc(-c3nn([C@H]4CC[C@H](N5CCN(C(=O)N(C)C)CC5)CC4)c4ncnc(N)c34)cc2[nH]1 |  |
